Key:
Assay type in all cases: in vivo
[1] = system: corn (Zea mays); test: Test A postemergence, visual injury rating; conditions: 0 is no effect, 100 is complete control
Excerpt: (§1) Seeds of plant species selected from barnyardgrass (Echinochloa crus-galli), kochia (Kochia scoparia), ragweed (common ragweed, Ambrosia elatior), Italian ryegrass (Lolium multiflorum), large (Lg) crabgrass (Digitaria sanguinalis), giant foxtail (Setaria faberii), morningglory (Ipomoea spp.), pigweed (Amaranthus retroflexus), velvetleaf (Abutilon theophrasti), wheat (Triticum aestivum), and corn (Zea mays) were planted into a blend of loam soil and sand and treated preemergence with a directed soil spray using test chemicals formulated in a non-phytotoxic solvent mixture which included a surfactant.
(§2) At the same time, plants selected from these crop and weed species and also blackgrass (Alopecurus myosuroides), and galium (catchweed bedstraw, Galium aparine) were planted in pots containing the same blend of loam soil and sand and treated with postemergence applications of test chemicals formulated in the same manner. Plants ranged in height from 2 to 10 cm and were in the one- to two-leaf stage for the postemergence treatment. Treated plants and untreated controls were maintained in a greenhouse for approximately 10 days, after which time all treated plants were compared to untreated controls and visually evaluated for injury. Plant response ratings, summarized in Table A, are based on a 0 to 100 scale where 0 is no effect and 100 is complete control. A dash (-) response means no test result.

[2] = system: kochia (Kochia scoparia); test: Test A postemergence, visual injury rating; conditions: 0 is no effect, 100 is complete control
Excerpt: as §1, §2

[3] = system: Italian ryegrass (Lolium multiflorum); test: Test A postemergence, visual injury rating; conditions: 0 is no effect, 100 is complete control
Excerpt: as §1, §2

[4] = system: galium (catchweed bedstraw, Galium aparine); test: Test A postemergence, visual injury rating; conditions: 0 is no effect, 100 is complete control
Excerpt: as §1, §2

[5] = system: wheat (Triticum aestivum); test: Test A postemergence, visual injury rating; conditions: 0 is no effect, 100 is complete control
Excerpt: as §1, §2

[6] = system: giant foxtail (Setaria faberii); test: Test A postemergence, visual injury rating; conditions: 0 is no effect, 100 is complete control
Excerpt: as §1, §2

[7] = system: blackgrass (Alopecurus myosuroides); test: Test A postemergence, visual injury rating; conditions: 0 is no effect, 100 is complete control
Excerpt: as §1, §2

[8] = system: pigweed (Amaranthus retroflexus); test: Test A postemergence, visual injury rating; conditions: 0 is no effect, 100 is complete control
Excerpt: as §1, §2

[9] = system: barnyardgrass (Echinochloa crus-galli); test: Test A postemergence, visual injury rating; conditions: 0 is no effect, 100 is complete control
Excerpt: as §1, §2

[10] = system: ragweed (common ragweed, Ambrosia elatior); test: Test A postemergence, visual injury rating; conditions: 0 is no effect, 100 is complete control
Excerpt: as §1, §2

[11] = system: kochia (Kochia scoparia); test: Test A preemergence, visual injury rating; conditions: 0 to 100 scale (0 no effect, 100 complete control)
Excerpt: as §1, §2

[12] = system: Italian ryegrass (Lolium multiflorum); test: Test A preemergence, visual injury rating; conditions: 0 to 100 scale (0 no effect, 100 complete control)
Excerpt: as §1, §2

[13] = system: giant foxtail (Setaria faberii); test: Test A preemergence, visual injury rating; conditions: 0 to 100 scale (0 no effect, 100 complete control)
Excerpt: as §1, §2

[14] = system: pigweed (Amaranthus retroflexus); test: Test A preemergence, visual injury rating; conditions: 0 to 100 scale (0 no effect, 100 complete control)
Excerpt: as §1, §2

[15] = system: barnyardgrass (Echinochloa crus-galli); test: Test A preemergence, visual injury rating; conditions: 0 to 100 scale (0 no effect, 100 complete control)
Excerpt: as §1, §2

[16] = system: ragweed (common ragweed, Ambrosia elatior); test: Test A preemergence, visual injury rating; conditions: 0 to 100 scale (0 no effect, 100 complete control)
Excerpt: as §1, §2

Compound | Corn plant response rating (0 to 100 scale) ([1]; 500 g ai/ha) | Kochia plant response rating (0 to 100 scale) ([2]; 500 g ai/ha) | Ryegrass, Italian plant response rating (0 to 100 scale) ([3]; 500 g ai/ha) | Galium plant response rating (0 to 100 scale) ([4]; 500 g ai/ha) | Wheat plant response rating (0 to 100 scale) ([5]; 500 g ai/ha) | Foxtail, Giant plant response rating (0 to 100 scale) ([6]; 500 g ai/ha) | Blackgrass plant response rating (0 to 100 scale) ([7]; 500 g ai/ha) | Pigweed plant response rating (0 to 100 scale) ([8]; 500 g ai/ha) | Barnyardgrass plant response rating (0 to 100 scale) ([9]; 500 g ai/ha) | Ragweed plant response rating (0 to 100 scale) ([10]; 500 g ai/ha) | Kochia plant response rating ([11]; 500 g ai/ha) | Ryegrass, Italian plant response rating ([12]; 500 g ai/ha) | Foxtail, Giant plant response rating ([13]; 500 g ai/ha) | Pigweed plant response rating ([14]; 500 g ai/ha) | Barnyardgrass plant response rating ([15]; 500 g ai/ha) | Ragweed plant response rating ([16]; 500 g ai/ha) | Corn plant response rating (0 to 100 scale) ([1]; 125 g ai/ha) | Kochia plant response rating (0 to 100 scale) ([2]; 125 g ai/ha) | Ryegrass, Italian plant response rating (0 to 100 scale) ([3]; 125 g ai/ha) | Galium plant response rating (0 to 100 scale) ([4]; 125 g ai/ha) | also measured
CC(C)(C)OC(=O)c1c(Br)cccc1Oc1ncc(Cl)cn1 [Compound 14] | 10 | 70 | 70 | 100 | 40 | 60 | 70 | 100 | 40 | 0 | 70 | 20 | 100 | 100 | 60 | 10 | – | – | – | – | –
O=C(OCCC(F)(F)F)c1ccccc1Oc1ncc(Cl)cn1 [Compound 17] | 20 | 0 | 0 | 0 | 0 | 0 | 0 | 40 | 0 | 0 | 0 | 0 | 0 | 10 | 0 | 0 | 0 | 0 | 0 | 0 | Wheat plant response rating (0 to 100 scale) ([5]; 125 g ai/ha): 0; Foxtail, Giant plant response rating (0 to 100 scale) ([6]; 125 g ai/ha): 0; Blackgrass plant response rating (0 to 100 scale) ([7]; 125 g ai/ha): 0; Pigweed plant response rating (0 to 100 scale) ([8]; 125 g ai/ha): 20; Barnyardgrass plant response rating (0 to 100 scale) ([9]; 125 g ai/ha): 0; Ragweed plant response rating (0 to 100 scale) ([10]; 125 g ai/ha): 0; Kochia plant response rating ([11]; 125 g ai/ha): 0; Ryegrass, Italian plant response rating ([12]; 125 g ai/ha): 0; Foxtail, Giant plant response rating ([13]; 125 g ai/ha): 0; Pigweed plant response rating ([14]; 125 g ai/ha): 0; Barnyardgrass plant response rating ([15]; 125 g ai/ha): 0; Ragweed plant response rating ([16]; 125 g ai/ha): 0
N#Cc1cnc(Oc2cccc(Br)c2C(=O)OCC(F)(F)F)nc1 [Compound 31] | 0 | 0 | 0 | 0 | 0 | 0 | 0 | 0 | 0 | 0 | 0 | 0 | 0 | 0 | 0 | 0 | 0 | 0 | 0 | 0 | Wheat plant response rating (0 to 100 scale) ([5]; 125 g ai/ha): 0; Foxtail, Giant plant response rating (0 to 100 scale) ([6]; 125 g ai/ha): 0; Blackgrass plant response rating (0 to 100 scale) ([7]; 125 g ai/ha): 0; Pigweed plant response rating (0 to 100 scale) ([8]; 125 g ai/ha): 0; Barnyardgrass plant response rating (0 to 100 scale) ([9]; 125 g ai/ha): 0; Ragweed plant response rating (0 to 100 scale) ([10]; 125 g ai/ha): 0; Kochia plant response rating ([11]; 125 g ai/ha): 0; Ryegrass, Italian plant response rating ([12]; 125 g ai/ha): 0; Foxtail, Giant plant response rating ([13]; 125 g ai/ha): 0; Pigweed plant response rating ([14]; 125 g ai/ha): 0; Barnyardgrass plant response rating ([15]; 125 g ai/ha): 0; Ragweed plant response rating ([16]; 125 g ai/ha): 0
N#Cc1cccc(Oc2ncc(Cl)cn2)c1C(=O)OCC(F)(F)F [Compound 32] | 0 | 0 | 0 | 0 | 0 | 0 | 0 | 30 | 0 | 0 | 0 | 0 | 0 | 30 | 0 | 0 | 0 | 0 | 0 | 0 | Wheat plant response rating (0 to 100 scale) ([5]; 125 g ai/ha): 0; Foxtail, Giant plant response rating (0 to 100 scale) ([6]; 125 g ai/ha): 0; Blackgrass plant response rating (0 to 100 scale) ([7]; 125 g ai/ha): 0; Pigweed plant response rating (0 to 100 scale) ([8]; 125 g ai/ha): 20; Barnyardgrass plant response rating (0 to 100 scale) ([9]; 125 g ai/ha): 0; Ragweed plant response rating (0 to 100 scale) ([10]; 125 g ai/ha): 0; Kochia plant response rating ([11]; 125 g ai/ha): 0; Ryegrass, Italian plant response rating ([12]; 125 g ai/ha): 0; Foxtail, Giant plant response rating ([13]; 125 g ai/ha): 0; Pigweed plant response rating ([14]; 125 g ai/ha): 30; Barnyardgrass plant response rating ([15]; 125 g ai/ha): 0; Ragweed plant response rating ([16]; 125 g ai/ha): 0
O=C(OCC(F)(F)F)c1c(Br)cccc1Oc1ncc(Br)cn1 [Compound 34] | 30 | 90 | 0 | 100 | 0 | 80 | 70 | 100 | 20 | 0 | 40 | 0 | 100 | 100 | 90 | 0 | 30 | 60 | 0 | 50 | Wheat plant response rating (0 to 100 scale) ([5]; 125 g ai/ha): 0; Foxtail, Giant plant response rating (0 to 100 scale) ([6]; 125 g ai/ha): 20; Blackgrass plant response rating (0 to 100 scale) ([7]; 125 g ai/ha): 10; Pigweed plant response rating (0 to 100 scale) ([8]; 125 g ai/ha): 100; Barnyardgrass plant response rating (0 to 100 scale) ([9]; 125 g ai/ha): 0; Ragweed plant response rating (0 to 100 scale) ([10]; 125 g ai/ha): 0; Kochia plant response rating ([11]; 125 g ai/ha): 20; Ryegrass, Italian plant response rating ([12]; 125 g ai/ha): 0; Foxtail, Giant plant response rating ([13]; 125 g ai/ha): 70; Pigweed plant response rating ([14]; 125 g ai/ha): 40; Barnyardgrass plant response rating ([15]; 125 g ai/ha): 0; Ragweed plant response rating ([16]; 125 g ai/ha): 0
N#CCOC(=O)c1c(C#N)cccc1Oc1ncc(Cl)cn1 [Compound 39] | 0 | 0 | 0 | 0 | 0 | 0 | 0 | 0 | 0 | 0 | 0 | 0 | 0 | 0 | 0 | 0 | 0 | 0 | 0 | 0 | Wheat plant response rating (0 to 100 scale) ([5]; 125 g ai/ha): 0; Foxtail, Giant plant response rating (0 to 100 scale) ([6]; 125 g ai/ha): 0; Blackgrass plant response rating (0 to 100 scale) ([7]; 125 g ai/ha): 0; Pigweed plant response rating (0 to 100 scale) ([8]; 125 g ai/ha): 0; Barnyardgrass plant response rating (0 to 100 scale) ([9]; 125 g ai/ha): 0; Ragweed plant response rating (0 to 100 scale) ([10]; 125 g ai/ha): 0; Kochia plant response rating ([11]; 125 g ai/ha): 0; Ryegrass, Italian plant response rating ([12]; 125 g ai/ha): 0; Foxtail, Giant plant response rating ([13]; 125 g ai/ha): 0; Pigweed plant response rating ([14]; 125 g ai/ha): 0; Barnyardgrass plant response rating ([15]; 125 g ai/ha): 0; Ragweed plant response rating ([16]; 125 g ai/ha): 0

— patent publication US11053204B2, “Pyrimidinyloxy benzene derivatives as herbicides” (FMC Corporation, priority 2015, dated 2021)
